Measurements: PubChem BioAssay AID1918937 (Molecular Pharmacology Branch, DTP, NCI, 2023)

Test system: 521955-158-R2-J5-PDC complex spheroid viability
Test: Anticancer human tumor 521955-158-R2-J5-PDC patient-derived pancreatic carcinoma cell line growth inhibition
Settings: for IC50: curve of first compound; for viability, T/C: stronger effect = lower value
In short: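 Complex spheroids of tumor cells with HUVEC and human MSCs, exposed to iadademstat combined with other agents. Each agent tested in half-log steps from near clinical Cmax (else 10 microM top), DMSO ≤0.25%.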

[1] = second compound 0.1 µM, first compound 0.000316 µM
[2] = second compound 0.1 µM, first compound 0.001 µM
[3] = second compound 0.1 µM, first compound 0.00316 µM
[4] = second compound 0.1 µM, first compound 0.01 µM
[5] = second compound 0.1 µM, first compound 0.0316 µM
[6] = second compound 0.1 µM, first compound 0.1 µM
[7] = second compound 0.316 µM, first compound 0.000316 µM
[8] = second compound 0.316 µM, first compound 0.001 µM
[9] = second compound 0.316 µM, first compound 0.00316 µM
[10] = second compound 0.316 µM, first compound 0.01 µM
[11] = second compound 0.316 µM, first compound 0.0316 µM
[12] = second compound 0.316 µM, first compound 0.1 µM
[13] = second compound 1 µM, first compound 0.000316 µM
[14] = second compound 1 µM, first compound 0.001 µM
[15] = second compound 1 µM, first compound 0.00316 µM
[16] = second compound 1 µM, first compound 0.01 µM
[17] = second compound 1 µM, first compound 0.0316 µM
[18] = second compound 1 µM, first compound 0.1 µM
[19] = second compound 3.16 µM, first compound 0.000316 µM
[20] = second compound 3.16 µM, first compound 0.001 µM
[21] = second compound 3.16 µM, first compound 0.00316 µM
[22] = second compound 3.16 µM, first compound 0.01 µM
[23] = second compound 3.16 µM, first compound 0.0316 µM
[24] = second compound 3.16 µM, first compound 0.1 µM
[25] = second compound 10 µM, first compound 0.000316 µM
[26] = second compound 10 µM, first compound 0.001 µM
[27] = second compound 10 µM, first compound 0.00316 µM
[28] = second compound 10 µM, first compound 0.01 µM
[29] = second compound 10 µM, first compound 0.0316 µM
[30] = second compound 10 µM, first compound 0.1 µM
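Also: spheroids exposed to agents for seven days.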
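For viability, T/C in this document: percent of DMSO vehicle control luminescence viability.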

`CC(C)CC(NC(=O)C(Cc1ccccc1)NC(=O)c1cnccn1)B(O)O` (stereo not given) + NC1CC1c1ccc(-c2cccc(O)c2)cc1 was tested, and the IC50 (second compound 0.1 µM) was 0.538 nM, the IC50 (second compound 0.316 µM) was 0.504 nM and the IC50 (second compound 1 µM) was 0.515 nM. The IC50 (second compound 3.16 µM) was 0.462 nM, the IC50 (second compound 10 µM) was 0.336 nM and the viability, T/C [1] was 92.2%. The viability, T/C [2] was 0.66%, the viability, T/C [3] was 0.11% and the viability, T/C [4] was 0.08%. The viability, T/C [5] was 0.09%, the viability, T/C [6] was 0.26% and the viability, T/C [7] was 83.8%. For the same compound, the viability, T/C [8] was 0.44%, the viability, T/C [9] was 0.17% and the viability, T/C [10] was 0.18%. For the same compound, the viability, T/C [11] was 0.1%, the viability, T/C [12] was 0.3% and the viability, T/C [13] was 86.6%. For the same compound, the viability, T/C [14] was 0.35%, the viability, T/C [15] was 0.24% and the viability, T/C [16] was 0.04%. For the same compound, the viability, T/C [17] was 0.06%, the viability, T/C [18] was 0.28% and the viability, T/C [19] was 74.4%. For the same compound, the viability, T/C [20] was 0.52%, the viability, T/C [21] was 0.15% and the viability, T/C [22] was 0.08%. The viability, T/C [23] was 0.07%, the viability, T/C [24] was 0.2% and the viability, T/C [25] was 52.8%. For the same compound, the viability, T/C [26] was 0.4%, the viability, T/C [27] was 0.22% and the viability, T/C [28] was 2.1%. For the same compound, the viability, T/C [29] was 0.17% and the viability, T/C [30] was 1.31%.
Compound `CC(C)CC(NC(=O)CNC(=O)c1cc(Cl)ccc1Cl)B1OC(=O)CC(CC(=O)O)(C(=O)O)O1` (stereo not given) + NC1CC1c1ccc(-c2cccc(O)c2)cc1 has an IC50 (second compound 0.1 µM) of 5.71 nM, an IC50 (second compound 0.316 µM) of 5.63 nM and an IC50 (second compound 1 µM) of 5.49 nM. For the same compound, the IC50 (second compound 3.16 µM) was 5.37 nM, the IC50 (second compound 10 µM) was 4.75 nM and the viability, T/C [1] was 83.1%. It also gave a viability, T/C [2] of 91.7%, a viability, T/C [3] of 86.8% and a viability, T/C [4] of 15.1%. It also gave a viability, T/C [5] of 0.96%, a viability, T/C [6] of 0.46% and a viability, T/C [7] of 73.4%. The viability, T/C [8] was 90.5%, the viability, T/C [9] was 89.2% and the viability, T/C [10] was 15.8%. It also gave a viability, T/C [11] of 0.53%, a viability, T/C [12] of 0.18% and a viability, T/C [13] of 81.3%. It also gave a viability, T/C [14] of 83.6%, a viability, T/C [15] of 87.3% and a viability, T/C [16] of 13%. It also gave a viability, T/C [17] of 0.98%, a viability, T/C [18] of 0.23% and a viability, T/C [19] of 76.3%. For the same compound, the viability, T/C [20] was 86.2%, the viability, T/C [21] was 83.8% and the viability, T/C [22] was 12.3%. For the same compound, the viability, T/C [23] was 0.68%, the viability, T/C [24] was 0.23% and the viability, T/C [25] was 87.6%. The viability, T/C [26] was 93.7%, the viability, T/C [27] was 72.7% and the viability, T/C [28] was 8.29%. The viability, T/C [29] was 0.39% and the viability, T/C [30] was 0.24%.
`Nc1ccccc1NC(=O)c1ccc(CNC(=O)OCc2cccnc2)cc1` + NC1CC1c1ccc(-c2cccc(O)c2)cc1 gave an IC50 (second compound 0.1 µM) of 429 nM, an IC50 (second compound 0.316 µM) of 393 nM and an IC50 (second compound 1 µM) of 446 nM. For the same compound, the IC50 (second compound 3.16 µM) was 452 nM, the IC50 (second compound 10 µM) was 403 nM and the viability, T/C (second compound 0.1 µM, first compound 0.00949 µM) was 89.2%. It also gave a viability, T/C (second compound 0.1 µM, first compound 0.03 µM) of 101%, a viability, T/C (second compound 0.1 µM, first compound 0.0949 µM) of 83.6% and a viability, T/C (second compound 0.1 µM, first compound 0.3 µM) of 62.8%. It also gave a viability, T/C (second compound 0.1 µM, first compound 0.949 µM) of 22.8%, a viability, T/C (second compound 0.1 µM, first compound 3 µM) of 0.44% and a viability, T/C (second compound 0.316 µM, first compound 0.00949 µM) of 83.7%. The viability, T/C (second compound 0.316 µM, first compound 0.03 µM) was 88.8%, the viability, T/C (second compound 0.316 µM, first compound 0.0949 µM) was 77.9% and the viability, T/C (second compound 0.316 µM, first compound 0.3 µM) was 59.9%. It also gave a viability, T/C (second compound 0.316 µM, first compound 0.949 µM) of 19.9%, a viability, T/C (second compound 0.316 µM, first compound 3 µM) of 0.28% and a viability, T/C (second compound 1 µM, first compound 0.00949 µM) of 90.4%. For the same compound, the viability, T/C (second compound 1 µM, first compound 0.03 µM) was 88.5%, the viability, T/C (second compound 1 µM, first compound 0.0949 µM) was 77.1% and the viability, T/C (second compound 1 µM, first compound 0.3 µM) was 67.8%. It also gave a viability, T/C (second compound 1 µM, first compound 0.949 µM) of 19.9%, a viability, T/C (second compound 1 µM, first compound 3 µM) of 1.47% and a viability, T/C (second compound 3.16 µM, first compound 0.00949 µM) of 84.2%. The viability, T/C (second compound 3.16 µM, first compound 0.03 µM) was 89.1%, the viability, T/C (second compound 3.16 µM, first compound 0.0949 µM) was 82.9% and the viability, T/C (second compound 3.16 µM, first compound 0.3 µM) was 70%. For the same compound, the viability, T/C (second compound 3.16 µM, first compound 0.949 µM) was 14.2%, the viability, T/C (second compound 3.16 µM, first compound 3 µM) was 0.23% and the viability, T/C (second compound 10 µM, first compound 0.00949 µM) was 90.3%. For the same compound, the viability, T/C (second compound 10 µM, first compound 0.03 µM) was 85.1%, the viability, T/C (second compound 10 µM, first compound 0.0949 µM) was 83.7% and the viability, T/C (second compound 10 µM, first compound 0.3 µM) was 65.3%. The viability, T/C (second compound 10 µM, first compound 0.949 µM) was 5.98% and the viability, T/C (second compound 10 µM, first compound 3 µM) was 0.28%.
`O=C(c1cc(Cc2n[nH]c(=O)c3ccccc23)ccc1F)N1CCN(C(=O)C2CC2)CC1` + NC1CC1c1ccc(-c2cccc(O)c2)cc1 was tested, and the IC50 (second compound 0.1 µM) was greater than 10000 nM, the IC50 (second compound 0.316 µM) was greater than 10000 nM and the IC50 (second compound 1 µM) was greater than 10000 nM. It also gave an IC50 (second compound 3.16 µM) greater than 10000 nM, an IC50 (second compound 10 µM) greater than 10000 nM and a viability, T/C [5] of 80.9%. The viability, T/C [6] was 87.5%, the viability, T/C (second compound 0.1 µM, first compound 0.316 µM) was 88.4% and the viability, T/C (second compound 0.1 µM, first compound 1 µM) was 87.4%. For the same compound, the viability, T/C (second compound 0.1 µM, first compound 3.16 µM) was 81.5%, the viability, T/C (second compound 0.1 µM, first compound 10 µM) was 69.1% and the viability, T/C [11] was 90.5%. The viability, T/C [12] was 82.3%, the viability, T/C (second compound 0.316 µM, first compound 0.316 µM) was 89.1% and the viability, T/C (second compound 0.316 µM, first compound 1 µM) was 74.7%. The viability, T/C (second compound 0.316 µM, first compound 3.16 µM) was 74.6%, the viability, T/C (second compound 0.316 µM, first compound 10 µM) was 66.2% and the viability, T/C [17] was 77.9%. The viability, T/C [18] was 79.7%, the viability, T/C (second compound 1 µM, first compound 0.316 µM) was 79.7% and the viability, T/C (second compound 1 µM, first compound 1 µM) was 77.1%. For the same compound, the viability, T/C (second compound 1 µM, first compound 3.16 µM) was 67%, the viability, T/C (second compound 1 µM, first compound 10 µM) was 59.5% and the viability, T/C [23] was 81.8%. It also gave a viability, T/C [24] of 82.2%, a viability, T/C (second compound 3.16 µM, first compound 0.316 µM) of 83.3% and a viability, T/C (second compound 3.16 µM, first compound 1 µM) of 75.6%. It also gave a viability, T/C (second compound 3.16 µM, first compound 3.16 µM) of 69.1%, a viability, T/C (second compound 3.16 µM, first compound 10 µM) of 55.8% and a viability, T/C [29] of 87.7%. The viability, T/C [30] was 84.9%, the viability, T/C (second compound 10 µM, first compound 0.316 µM) was 83.4% and the viability, T/C (second compound 10 µM, first compound 1 µM) was 78.4%. The viability, T/C (second compound 10 µM, first compound 3.16 µM) was 68.1% and the viability, T/C (second compound 10 µM, first compound 10 µM) was 55.7%.
